Experimental findings from patent publication US12173309B2, “Compounds for increasing genome editing efficiency” (Max-Planck-Gesellschaft zur Förderung der Wissenschaften …, priority 2017, dated 2024) are described below.

The subject of experiment [1] is 409-B2 iCRISPR-Cas9n hiPSCs. The experiment is described as follows: BFP insertion (871 nt ssODN) efficiency in AAVS1 iCRISPR locus, microscopy. It is filed as cell-based, human. The conditions noted are these: 7 days of BFP expression. The source says: FIG. 8: Impact of the CRISPY mix and its component NU7026 on BFP insertion (ssODN) efficacy in human induced pluripotent stem cells. The design of the mtagBFP2 (Subach et al. 2011) ssODN donor and the iCRISPR system is shown in (A). We inserted a 871 nt (including 50 nt homology arms) sequence coding for a 2A-self cleaving peptide in front of a Blue Fluorescent Protein (BFP), directly after the N-terminal nuclear localization signal sequence (NLS) of the Cas9n in the heterozygous AAVS1 iCRISPR locus (409-B2 iCRISPR-Cas9n hiPSCs). If the sequence is inserted, doxycycline will lead to expression of nucleus-imported BFP. […] Two images (50× magnification, white size bar 200 μm) from each of three technical replicates for the respective treatments were used to quantify the percentage of cells with BFP insertion using ImageJ (C).
409-B2 iCRISPR-Cas9n hiPSCs were nucleofected with gRNAs and the Blue Fluorescent Protein (BFP) single stranded oligo (FIG. 8A, 330 ng) in […] for either mock, NU7026, and CRISPY mix treatment. […] Images were blinded and BFP positive nuclei were counted using the Adobe Photoshop CS5 counting tool. Propidium iodide positive nuclei were quantified using ImageJ by dividing the area of nuclei (default threshold) with the mean area of a single nucleus.

In experiment [2] the test system is 409-B2 hiPSCs. The experiment is described as follows: PGE efficiency with recombinant Cpf1 ribonucleoprotein electroporation. It is filed as cell-based, human. The source says: The recombinant A.s. Cpf1 and S.p. Cas9 protein and electroporation enhancer was ordered from IDT (Coralville, USA) and nucleofection was done using the manufacturer's protocol, except for the following alterations. […] Cells were counted using the Countess Automated Cell Counter (Invitrogen). […]
CRISPresso (Pinello et al. 2016) was used to analyse sequencing data from CRISPR genome editing experiments for percentage of wildtype, targeted nucleotide substitutions (TNS), indels and mix of TNS and indels. […] Sequencing data from colonies after single cell seeding (FIGS. 3B and C) was further analyzed by evaluating the actual read sequences using SAMtools. Clonal colonies were differentiated from mixed colonies using sequence read proportions. Colonies were counted as clones if the clear majority of reads consisted of a single sequence (homozygous) or of two sequences of similar read count (heterozygous). […]

As for `O=c1cc(N2CCOCC2)oc2c1ccc1ccccc12` [NU7026], the “nuclei positive for BFP” value in experiment [1] is on record as 6%. Moreover, the “increase of nuclei positive for BFP” value in experiment [1] (vs no-CRISPY control (3.7%)) is listed as 1.6 fold. Besides, the values for the PGE increase in experiment [2] (DMNT1) and in experiment [2] (HPRT) were 2.4 fold and 2.1 fold, respectively.
